Here are results for 13 compounds from US8871753B2, “Macrocyclic compounds and their use as kinase inhibitors” (Incyte Corporation, priority 2008, dated 2014).

Molecules are shown by their SMILES. Structures can show the parent of a compound that is named as a salt. Where only a bound is given, the exact number is not on record here.

Format in all cases: biochemical
The target of assay [1] is T1, human JAK1 (a.a. 837-1142) (Homo sapiens, UniProt P23458).
T1 construct: human JAK1 (a.a. 837-1142); His tag (N); made in house; host or cells: insect cells (baculovirus)
Description: In vitro JAK kinase assay (HTRF, phosphorylation of a biotinylated peptide), JAK1. Particulars: Table B1; read-out: JAK1 IC50. The gist of the method: (§1)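 Kinase reactions ran at room temperature for 1 h with ATP matched per isoform (JAK1 90 μM, JAK2 30 μM, JAK3 3 μM). After an EDTA stop, the phosphorylated biotin-peptide was read by HTRF using Eu-Py20 and SA-APC after 40 min binding.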

Assay [2] concerns the target T2, human JAK2 (a.a. 828-1132) (Homo sapiens, UniProt O60674).
T2 construct: JAK2 (a.a. 828-1132); His tag (N); made in house; host or cells: insect cells (baculovirus)
Description: In vitro JAK kinase assay (HTRF, phosphorylation of a biotinylated peptide), JAK2. The following applies: Table B1. The gist of the method: as §1

The target of assay [3] is TYK2 (Homo sapiens, UniProt P29597). The assay is described as follows: TYK2 kinase inhibition (Table A1). The following applies: Table B1.
Assay [4] addresses T3, human JAK3 (a.a. 781-1124) (Homo sapiens, UniProt P52333).
T3 construct: JAK3 (a.a. 781-1124); His tag (N); made in house; host or cells: insect cells (baculovirus)
Description: In vitro JAK kinase assay (HTRF, phosphorylation of a biotinylated peptide), JAK3. Particulars: Table B1. Put shortly: as §1
Background: TR-FRET usually uses a lanthanide donor and a delayed reading to cut background.

For assay [5], the target named is T4, Recombinant Human Anaplastic Lymphoma Kinase (Homo sapiens, UniProt Q9UM73).
T4 construct: purchased Invitrogen, Carlsbad, Calif
The assay is described as follows: ALK HTRF kinase assay. Particulars: for ALK % of inhibition at a concentration of 500 nM or 1 mM: compound at a concentration of 500 nM or 1 mM (not specified), cells shown as percentage; for IC50: Table B1, cells without percent sign. The gist of the method: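 Readout was HTRF between a Eu-W1024 anti-phosphotyrosine antibody and streptavidin-APC bound to biotinylated peptide phosphorylated by recombinant human ALK. IC50 values came from a four-parameter logistic fit.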

T3 sequence (P52333 781-1124): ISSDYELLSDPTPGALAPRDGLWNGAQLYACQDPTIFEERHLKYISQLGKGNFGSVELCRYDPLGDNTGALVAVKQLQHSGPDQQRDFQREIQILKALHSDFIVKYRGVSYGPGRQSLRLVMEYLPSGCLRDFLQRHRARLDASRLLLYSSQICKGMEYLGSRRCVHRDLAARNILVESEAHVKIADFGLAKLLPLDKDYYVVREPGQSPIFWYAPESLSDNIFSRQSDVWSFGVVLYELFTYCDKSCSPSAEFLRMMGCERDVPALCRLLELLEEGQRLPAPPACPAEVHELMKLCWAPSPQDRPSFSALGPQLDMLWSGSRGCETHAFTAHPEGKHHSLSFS
T4 sequence (Q9UM73 19-1620): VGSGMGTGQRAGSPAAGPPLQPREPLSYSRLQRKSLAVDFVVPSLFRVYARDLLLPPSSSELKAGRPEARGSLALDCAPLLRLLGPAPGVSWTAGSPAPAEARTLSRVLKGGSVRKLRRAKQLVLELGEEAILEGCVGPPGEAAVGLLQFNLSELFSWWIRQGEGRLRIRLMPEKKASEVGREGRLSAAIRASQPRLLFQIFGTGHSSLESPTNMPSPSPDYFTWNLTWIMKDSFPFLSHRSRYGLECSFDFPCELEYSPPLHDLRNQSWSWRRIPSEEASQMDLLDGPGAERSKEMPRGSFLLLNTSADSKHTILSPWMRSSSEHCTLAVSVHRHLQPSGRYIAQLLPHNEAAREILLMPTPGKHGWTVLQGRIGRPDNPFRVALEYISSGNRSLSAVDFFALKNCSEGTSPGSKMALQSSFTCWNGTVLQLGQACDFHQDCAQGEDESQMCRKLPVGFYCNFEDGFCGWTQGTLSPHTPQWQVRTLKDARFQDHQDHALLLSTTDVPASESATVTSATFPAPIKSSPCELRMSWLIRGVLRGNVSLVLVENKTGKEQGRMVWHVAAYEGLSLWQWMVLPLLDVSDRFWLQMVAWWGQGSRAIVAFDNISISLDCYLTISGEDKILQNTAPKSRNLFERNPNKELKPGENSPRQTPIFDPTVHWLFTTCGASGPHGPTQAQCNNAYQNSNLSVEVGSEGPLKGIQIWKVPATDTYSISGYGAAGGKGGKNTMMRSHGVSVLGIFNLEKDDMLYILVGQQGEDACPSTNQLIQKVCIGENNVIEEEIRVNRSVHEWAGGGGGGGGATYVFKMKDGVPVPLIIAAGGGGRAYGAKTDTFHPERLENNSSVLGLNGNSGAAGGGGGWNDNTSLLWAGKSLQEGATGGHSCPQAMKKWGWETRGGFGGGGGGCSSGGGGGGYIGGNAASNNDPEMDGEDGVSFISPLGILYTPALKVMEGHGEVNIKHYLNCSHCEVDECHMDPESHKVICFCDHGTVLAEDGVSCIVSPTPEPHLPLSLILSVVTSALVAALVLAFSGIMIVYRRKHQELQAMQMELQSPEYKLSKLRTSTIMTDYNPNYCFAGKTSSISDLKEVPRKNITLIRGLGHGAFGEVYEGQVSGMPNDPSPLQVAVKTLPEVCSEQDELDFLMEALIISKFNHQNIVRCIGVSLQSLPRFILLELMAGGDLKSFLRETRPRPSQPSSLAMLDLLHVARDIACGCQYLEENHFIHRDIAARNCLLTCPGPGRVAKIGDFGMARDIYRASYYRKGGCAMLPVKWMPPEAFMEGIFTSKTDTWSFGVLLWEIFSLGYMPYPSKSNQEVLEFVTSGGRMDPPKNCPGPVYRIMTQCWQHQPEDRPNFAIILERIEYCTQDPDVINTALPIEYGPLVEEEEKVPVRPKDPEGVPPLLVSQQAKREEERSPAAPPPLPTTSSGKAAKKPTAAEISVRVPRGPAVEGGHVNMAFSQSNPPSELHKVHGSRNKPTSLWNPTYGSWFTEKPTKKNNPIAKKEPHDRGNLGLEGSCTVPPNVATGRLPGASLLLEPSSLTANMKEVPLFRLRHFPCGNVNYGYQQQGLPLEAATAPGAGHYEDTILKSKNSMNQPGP
Chain of TYK2 (P29597 whole entry): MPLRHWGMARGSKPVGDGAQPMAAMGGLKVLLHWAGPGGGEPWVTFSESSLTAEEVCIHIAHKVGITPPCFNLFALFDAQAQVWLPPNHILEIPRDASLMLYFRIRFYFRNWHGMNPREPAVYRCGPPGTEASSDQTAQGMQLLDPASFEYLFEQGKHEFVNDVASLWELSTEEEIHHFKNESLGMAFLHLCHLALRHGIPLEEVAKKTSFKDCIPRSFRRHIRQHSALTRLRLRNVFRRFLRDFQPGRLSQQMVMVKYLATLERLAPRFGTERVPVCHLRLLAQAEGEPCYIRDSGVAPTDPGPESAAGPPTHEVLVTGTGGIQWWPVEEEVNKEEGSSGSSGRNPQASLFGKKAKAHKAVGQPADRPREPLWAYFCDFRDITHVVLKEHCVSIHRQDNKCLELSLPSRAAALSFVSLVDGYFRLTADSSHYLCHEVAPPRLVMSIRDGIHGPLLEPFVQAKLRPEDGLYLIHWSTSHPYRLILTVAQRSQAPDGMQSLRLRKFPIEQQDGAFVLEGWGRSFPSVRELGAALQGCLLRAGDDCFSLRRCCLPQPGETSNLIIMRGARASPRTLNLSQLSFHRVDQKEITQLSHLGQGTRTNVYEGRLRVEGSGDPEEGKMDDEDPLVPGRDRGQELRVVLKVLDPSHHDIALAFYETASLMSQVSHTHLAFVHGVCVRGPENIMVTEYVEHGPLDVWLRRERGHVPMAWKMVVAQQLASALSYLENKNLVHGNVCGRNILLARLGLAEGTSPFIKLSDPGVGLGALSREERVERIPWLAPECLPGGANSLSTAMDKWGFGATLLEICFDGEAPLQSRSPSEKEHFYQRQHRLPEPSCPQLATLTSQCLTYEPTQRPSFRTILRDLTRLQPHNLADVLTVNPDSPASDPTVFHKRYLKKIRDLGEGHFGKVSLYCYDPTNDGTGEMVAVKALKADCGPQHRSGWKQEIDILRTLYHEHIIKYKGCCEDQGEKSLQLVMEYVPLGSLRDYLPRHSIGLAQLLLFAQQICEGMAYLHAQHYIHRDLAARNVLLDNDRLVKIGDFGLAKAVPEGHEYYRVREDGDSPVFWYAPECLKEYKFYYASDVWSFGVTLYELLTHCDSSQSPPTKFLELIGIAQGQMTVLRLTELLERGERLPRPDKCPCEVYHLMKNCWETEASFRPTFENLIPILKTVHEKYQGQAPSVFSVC
T2 sequence (O60674 828-1132): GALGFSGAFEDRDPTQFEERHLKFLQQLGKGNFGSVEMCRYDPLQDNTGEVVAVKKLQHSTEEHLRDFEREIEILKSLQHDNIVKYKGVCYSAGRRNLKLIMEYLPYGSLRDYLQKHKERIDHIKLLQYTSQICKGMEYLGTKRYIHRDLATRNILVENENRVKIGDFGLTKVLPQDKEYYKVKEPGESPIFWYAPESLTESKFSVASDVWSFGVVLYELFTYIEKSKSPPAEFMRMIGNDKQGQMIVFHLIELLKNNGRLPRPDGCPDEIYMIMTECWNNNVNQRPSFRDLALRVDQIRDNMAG
T1 sequence (P23458 849-1154): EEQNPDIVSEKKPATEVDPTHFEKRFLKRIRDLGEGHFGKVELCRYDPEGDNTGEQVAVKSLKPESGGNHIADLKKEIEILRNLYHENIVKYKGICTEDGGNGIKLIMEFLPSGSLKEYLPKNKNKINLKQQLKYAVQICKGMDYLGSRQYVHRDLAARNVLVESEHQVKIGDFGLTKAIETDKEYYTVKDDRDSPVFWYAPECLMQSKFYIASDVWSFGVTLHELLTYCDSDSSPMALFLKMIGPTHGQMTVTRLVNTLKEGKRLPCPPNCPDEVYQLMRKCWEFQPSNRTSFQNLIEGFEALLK

The term IC50 denotes the concentration that inhibits the measured activity by half. `O=C(Nc1ccc2cc1CCc1cccc(c1)Nc1ncc(Cl)c(n1)N2)c1ccc(C(F)(F)F)cc1` [Example B75, N-[6-Chloro-2,4,8,22-tetraazatetracyclo[14.3.1.1(3,7).1(9,13)]docosa-1(20), 3(22),4,6,9(21),10,12,16,18-nonaen-12-yl]-4-(trifluoromethyl)benzamide trifluoroacetate]: the IC50 was determined as 4.7 nM in assay [1], 30 nM in assay [2], 30 nM in assay [3] and 80 nM in assay [4]. In addition, the “ALK % of inhibition at a concentration of 500 nM or 1 mM” value (“ALK % of inhibition” below) in assay [5] stood at 17%.
For `O=C(Nc1ccc2cc1CCc1cccc(c1)Nc1ncc(Cl)c(n1)N2)c1cccc(C(F)(F)F)c1` [Example B76, N-[6-Chloro-2,4,8,22-tetraazatetracyclo[14.3.1.1(3,7).1(9,13)]docosa-1(20), 3(22),4,6,9(21),10,12,16,18-nonaen-12-yl]-3-(trifluoromethyl)benzamide trifluoroacetate], the IC50 in assay [1] is 33 nM; in assay [2] it was 14 nM; in assay [3], 25 nM; in assay [4], 61 nM. The “ALK % of inhibition” value in assay [5] is on record as 28%.
Consider `O=C(Nc1ccc2cc1CCc1cccc(c1)Nc1ncc(Cl)c(n1)N2)c1ccc(C(F)(F)F)nc1` [Example B77, N-[6-Chloro-2,4,8,22-tetraazatetracyclo[14.3.1.1(3,7).1(9,13)]docosa-1(20), 3(22),4,6,9(21),10,12,16,18-nonaen-12-yl]-6-(trifluoromethyl)nicotinamide bis(trifluoroacetate)], for which the half-inhibitory concentration (IC50) in assay [1] stood at 0.84 nM; in assay [2], 2.2 nM; in assay [3], 8 nM; in assay [4], 7.6 nM. The “ALK % of inhibition” value in assay [5] came out at 54%.
In the case of `Cc1ncoc1C(=O)Nc1ccc2cc1CCc1cccc(c1)Nc1ncc(Cl)c(n1)N2` [Example B78, N-[6-Chloro-2,4,8,22-tetraazatetracyclo[14.3.1.1(3,7).1(9,13)]docosa-1(20),3(22),4,6,9(21),10,12,16,18-nonaen-12-yl]-4-methyl-1,3-oxazole-5-carboxamide trifluoroacetate], the IC50 in assay [1] amounted to 11 nM; in assay [2], 12 nM; in assay [3] it was 29 nM; in assay [4], 57 nM. In addition, the “ALK % of inhibition” value in assay [5] is listed as 44%.
`O=C(Nc1ccc2cc1CCc1cccc(c1)Nc1ncc(Cl)c(n1)N2)c1ccc2occc2c1` [Example B79, N-[6-Chloro-2,4,8,22-tetraazatetracyclo[14.3.1.1(3,7).1(9,13)]docosa-1(20), 3(22),4,6,9(21),10,12,16,18-nonaen-12-yl]-1-benzofuran-5-carboxamide trifluoroacetate]: the IC50 is 0.83 nM in assay [1], 0.58 nM in assay [2], 1.7 nM in assay [3] and 2.8 nM in assay [4]. The “ALK % of inhibition” value in assay [5] was 91%.
With `O=C(Nc1ccc2cc1CCc1cccc(c1)Nc1ncc(Cl)c(n1)N2)c1cnn2ccccc12` [Example B80, N-[6-Chloro-2,4,8,22-tetraazatetracyclo[14.3.1.1(3,7).1(9,13)]docosa-1(20),3(22),4,6,9(21),10,12,16,18-nonaen-12-yl]pyrazolo[1,5-a]pyridine-3-carboxamide bis(trifluoroacetate)], the IC50 stood at 0.56 nM in assay [1], 0.53 nM in assay [2], 1.2 nM in assay [3] and 1.7 nM in assay [4]. In addition, the “ALK % of inhibition” value in assay [5] came to 73%.
The like results for `CN(C)c1ccc(C(=O)Nc2ccc3cc2CCc2cccc(c2)Nc2ncc(Cl)c(n2)N3)cc1` [Example B82, N-[6-Chloro-2,4,8,22-tetraazatetracyclo[14.3.1.1(3,7).1(9,13)]docosa-1(20), 3(22),4,6,9(21),10,12,16,18-nonaen-12-yl]-4-(dimethylamino)benzamide bis(trifluoroacetate)] were, in that order, 7.9 nM, 7.6 nM, 14 nM, 44 nM and 39%.
`O=C(Nc1ccccc1)Nc1ccc2cc1CCc1cccc(c1)Nc1ncc(Cl)c(n1)N2` [Example B83, N-[6-Chloro-2,4,8,22-tetraazatetracyclo[14.3.1.1(3,7).1(9,13)]docosa-1(20), 3(22),4,6,9(21),10,12,16,18-nonaen-12-yl]-N′-phenylurea trifluoroacetate]: the half-inhibitory concentration (IC50) in assay [1] came out at 0.56 nM; in assay [2], 1.7 nM; in assay [3], 5.2 nM; in assay [4], 27 nM; in assay [5], 780 nM.
The like results for `O=C(Nc1ccccc1Cl)Nc1ccc2cc1CCc1cccc(c1)Nc1ncc(Cl)c(n1)N2` [Example B84, N-(2-Chlorophenyl)-N′-[6-chloro-2,4,8,22-tetraazatetracyclo[14.3.1.1(3,7).1(9,13)]docosa-1(20),3(22),4,6,9(21),10,12,16,18-nonaen-12-yl]urea trifluoroacetate] were, in that order, 0.39 nM, 1.3 nM, 4.2 nM, 9.7 nM and 730 nM.
For `O=C(Nc1cccc(Cl)c1)Nc1ccc2cc1CCc1cccc(c1)Nc1ncc(Cl)c(n1)N2` [Example B85, N-(3-Chlorophenyl)-N′-[6-chloro-2,4,8,22-tetraazatetracyclo[14.3.1.1(3,7).1(9,13)]docosa-1(20),3(22),4,6,9(21),10,12,16,18-nonaen-12-yl]urea trifluoroacetate] the same measures were 1.4 nM, 2.7 nM, 2.2 nM, 39 nM and more than 1000 nM.
The like results for `O=C(Nc1ccc(Cl)cc1)Nc1ccc2cc1CCc1cccc(c1)Nc1ncc(Cl)c(n1)N2` [Example B86, N-(4-Chlorophenyl)-N′-[6-chloro-2,4,8,22-tetraazatetracyclo[14.3.1.1(3,7).1(9,13)]docosa-1(20),3(22),4,6,9(21),10,12,16,18-nonaen-12-yl]urea trifluoroacetate] were, in that order, 2.7 nM, 2.6 nM, 6.4 nM, 27 nM and more than 1000 nM.
Regarding `CC(C)(C)NC(=O)Nc1ccc2cc1CCc1cccc(c1)Nc1ncc(Cl)c(n1)N2` [Example B87, N-(tert-Butyl)-N′-[6-chloro-2,4,8,22-tetraazatetracyclo[14.3.1.1(3,7).1(9,13)]docosa-1(20),3(22),4,6,9(21),10,12,16,18-nonaen-12-yl]urea trifluoroacetate], the half-maximal inhibitory concentration (IC50) is 5.3 nM in assay [1]; 4.5 nM in assay [2]; 16 nM in assay [3]; 42 nM in assay [4]; more than 1000 nM in assay [5].
Turning to `O=C(Nc1ccc2cc1CCc1cccc(c1)Nc1ncc(Cl)c(n1)N2)NC1CCCC1` [Example B88, N-[6-Chloro-2,4,8,22-tetraazatetracyclo[14.3.1.1(3,7).1(9,13)]docosa-1(20), 3(22),4,6,9(21),10,12,16,18-nonaen-12-yl]-N′-cyclopentylurea trifluoroacetate], the 50% inhibitory concentration (IC50) in assay [1] is 0.74 nM; in assay [2], 1.7 nM; in assay [3], 6.3 nM; in assay [4], 29 nM; in assay [5] it was 930 nM.
